Measured values reported in US20150219624A1, “METHODS FOR IDENTIFYING ANTI-CANCER COMPOUNDS” (MEMORIAL SLOAN KETTERING CANCER CENTER, priority 2013, published 2015).

Experiments:
Assay type in all cases: cell-based
human T-ALL lines = test: mRNA levels of target genes (real-time quantitative PCR); settings: 25 nM
Experimental: Real-Time Quantitative PCR. Total RNA was extracted using AllPrep DNA/RNA/Protein Mini Kit (Qiagen 80004). Normal CD3+ T-cell RNA mixed from healthy donors was purchased from Miltenyi Biotec (130-093-164). cDNA was made using SuperScript III First-Strand (Invitrogen 18080-400). Analysis was performed by ΔΔCt. Applied Biosystems Taqman GeneExpression Assays: human Myc Hs00153408_m1, hsa-miR-19b RT and TM 396, Rnu6b RT and TM 001093, and mouse Myc Mm00487804_m1.
Given the complexity of the RF data analysis, it was important to directly confirm loss of expression for at least some of these proteins. Briefly, immunoblots on JURKAT and KOPT-K1 cells treated with silvestrol (25 nM) and loaded with equal amounts of total protein confirmed dramatic loss of MYC, NOTCH1, BCL2, and CCND3 proteins (FIG. 6A). The effect on MYC was especially striking, it was dose dependent (FIG. 6B), lasted for 48 h, and was also achieved in xenografts in vivo (Figure S6A-B). […] As expected, ACTIN, TUBULIN, and GAPDH were not affected (FIG. 6A). […] The small and significant increase in MYC mRNA levels might be consistent with prior reports of a MYC auto-regulatory mechanism (Penn et al., 1990a; Penn et al., 1990b) (FIG. 6C).
FIG. 6 depicts validation of selected silvestrol targets. A) Immunoblots of lysates from human T-ALL lines treated with silvestrol (25 nM) and probed as indicated. […]

IMR32 = test: Silvestrol in neuroblastoma cell lines in vitro: IMR32; settings: Homo sapiens, IMR-32; IMR32 cells, N_MYC
Experimental: The effect of silvestrol on several neuroblastoma cell lines was evaluated.

murine T-ALL cells = test: Silvestrol effect on murine T-ALL cells with engineered genetic lesions; settings: cells expressing Akt, mutant IL7R, eIF4E or shRNA against Pten
PANC-1 = test: Silvestrol sensitivity and KRAS protein levels in PANC-1
Description: KRAS has a long T1/2 compared to MYC, and therefore the effect is less pronounced. The in vitro activity of an S6 kinase inhibitor, rapamycin, silvestrol and combinations on PNAC1 and MiaPaca2 cells are shown in FIGS. 24B and 24C, respectively.

COC(=O)[C@H]1[C@@H](O)[C@@]2(O)c3c(OC)cc(O[C@@H]4O[C@@H]([C@H](O)CO)CO[C@H]4OC)cc3O[C@@]2(c2ccc(OC)cc2)[C@@H]1c1ccccc1 [silvestrol]
corresponding mRNA expression (human T-ALL lines): no decrease | IC50 (IMR32): 2.86 nM | sensitivity of murine T-ALL cells (murine T-ALL cells): no significant difference in sensitivity | KRAS expression (PANC-1; PANC1 cells, 50 nM): loss of KRAS expression | KRAS expression (PANC-1; PANC-1, 20 nM): loss of KRAS expression
